# From paper PMC4471902, “Block of NMDA receptor channels by endogenous neurosteroids: implications for the agonist induced conformational states of the channel vestibule” (Scientific Reports, 2015)
# Structures can show the parent of a compound that is named as a salt.
# Molecular target: T1, GluN2B(Y646A) (Rattus norvegicus, UniProt P35439+Q00960, Y646A)
# T1 construct: expressed in transfected cells; host or cells: HEK293
# Assay: Whole-cell patch-clamp of GluN1/GluN2B(Y646A) receptor responses in HEK293 cells
# Type: cell-based
# Excerpt: Human embryonic kidney (HEK293) cells were transfected with expression vectors containing: GluN1–1a (GenBank accession number U08261)[52]; GluN2B (GenBank accession number M91562); GluN1-4a(F484A), (generous gift from Dr. J. J. Woodward)[53] (Smothers & Woodward, 2009); GluN3A (generous gift from Dr. S. A. Lipton)[54] (GenBank accession number NM_138546); GluN1ΔN with deleted 354 amino acids in the NTD (32 to 386); GluN1ΔC with an introduced stop codon in 838 of the CTD GluN2BΔN) with deleted 354 amino acids in the NTD (32 to 386); GluN2BΔC with an introduced stop codon in 844 of the CTD[55]; GluR0 (GenBank accession number Synechocystis PCC 6803) (generous gift from Dr. M. L. Mayer)[18]; and green fluorescent protein (GFP) (pQBI 25, Takara, Tokyo, Japan) genes, as described previously. The Quick-Change site-directed mutagenesis kit (Agilent Technologies, Santa Clara, CA, USA) was used to generate specific point mutations in the M1/M3 region according to the manufacturer’s instructions using manually designed primers purchased from Sigma. Modified DNA plasmids were transformed into competent XL10-Gold E.coli cells, positive clones were selected, and isolated DNA was sequenced. […]
# The IC50 was determined from a single dose of a steroid using the formula [drawing 1] where I is the relative degree of inhibition and [steroid] is the steroid concentration used. […]
# T1 sequence (Q00960 27-1482 Y646A, other chains not shown): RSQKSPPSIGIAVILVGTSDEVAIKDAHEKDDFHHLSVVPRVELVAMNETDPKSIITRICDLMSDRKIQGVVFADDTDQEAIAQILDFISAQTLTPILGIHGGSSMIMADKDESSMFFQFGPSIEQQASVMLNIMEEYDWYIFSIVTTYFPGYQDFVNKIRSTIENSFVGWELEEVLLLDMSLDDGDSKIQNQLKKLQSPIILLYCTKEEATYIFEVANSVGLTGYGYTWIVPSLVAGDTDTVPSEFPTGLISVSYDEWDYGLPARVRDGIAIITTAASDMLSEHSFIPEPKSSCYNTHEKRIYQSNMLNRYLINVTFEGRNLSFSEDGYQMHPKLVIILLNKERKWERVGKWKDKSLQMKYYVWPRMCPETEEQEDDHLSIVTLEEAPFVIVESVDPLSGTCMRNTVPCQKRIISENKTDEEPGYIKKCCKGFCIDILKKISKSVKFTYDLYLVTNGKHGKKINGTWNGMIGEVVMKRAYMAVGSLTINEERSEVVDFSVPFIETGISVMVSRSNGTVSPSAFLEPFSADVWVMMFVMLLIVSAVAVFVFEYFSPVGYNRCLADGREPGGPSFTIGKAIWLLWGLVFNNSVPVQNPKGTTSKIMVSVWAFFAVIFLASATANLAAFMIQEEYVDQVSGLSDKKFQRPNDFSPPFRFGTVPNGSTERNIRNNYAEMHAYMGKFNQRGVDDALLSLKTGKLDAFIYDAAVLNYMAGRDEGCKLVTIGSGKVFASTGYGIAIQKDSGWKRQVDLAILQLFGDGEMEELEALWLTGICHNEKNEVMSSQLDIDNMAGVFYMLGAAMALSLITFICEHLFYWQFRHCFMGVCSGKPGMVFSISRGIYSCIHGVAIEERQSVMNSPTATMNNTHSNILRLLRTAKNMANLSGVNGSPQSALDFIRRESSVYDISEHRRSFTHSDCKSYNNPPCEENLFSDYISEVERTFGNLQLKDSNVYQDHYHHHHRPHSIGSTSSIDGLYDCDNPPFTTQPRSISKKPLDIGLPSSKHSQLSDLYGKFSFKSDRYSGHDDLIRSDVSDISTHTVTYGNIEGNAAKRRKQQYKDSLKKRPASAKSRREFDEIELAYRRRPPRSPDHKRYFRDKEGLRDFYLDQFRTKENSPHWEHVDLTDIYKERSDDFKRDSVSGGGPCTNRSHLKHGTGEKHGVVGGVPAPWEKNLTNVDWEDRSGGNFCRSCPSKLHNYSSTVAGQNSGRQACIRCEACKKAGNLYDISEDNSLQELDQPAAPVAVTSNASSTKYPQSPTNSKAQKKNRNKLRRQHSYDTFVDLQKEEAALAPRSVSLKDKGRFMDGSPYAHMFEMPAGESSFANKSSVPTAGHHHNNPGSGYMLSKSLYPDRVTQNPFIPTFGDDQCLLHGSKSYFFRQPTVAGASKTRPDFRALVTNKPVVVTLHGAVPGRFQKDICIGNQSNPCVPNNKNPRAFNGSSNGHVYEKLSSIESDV
smiles,measurement,value
"CC(=O)[C@H]1CC[C@H]2[C@@H]3CC[C@@H]4C[C@H](OS(=O)(=O)O)CC[C@]4(C)[C@H]3CC[C@]12C [PA-S, 20-oxo-5β-pregnan-3α-yl sulfate]",IC50,4.3 ± 0.7 µM
